Patent US11254686B1 (Corvus Pharmaceuticals, Inc., priority 2017, dated 2022)

Key:
[1] = target: adenosine A2A receptor (Homo sapiens (Human), UniProt P29274); assay: Adenosine receptor activity assay (Table 1), A2A activity; format: biochemical; details: read-out: Ave A2A cAMP IC50
[2] = target: adenosine A2B receptor (Homo sapiens (Human), UniProt P29275); assay: Adenosine receptor activity assay (Table 1), A2B activity; format: biochemical; details: for IC50: read-out: Ave A2B cAMP IC50
[3] = A2A activity to A2B activity (A2A/A2B)
[4] = A2A activity to the A2B activity, A2A/A2B

Sequence of adenosine A2B receptor (P29275 whole entry): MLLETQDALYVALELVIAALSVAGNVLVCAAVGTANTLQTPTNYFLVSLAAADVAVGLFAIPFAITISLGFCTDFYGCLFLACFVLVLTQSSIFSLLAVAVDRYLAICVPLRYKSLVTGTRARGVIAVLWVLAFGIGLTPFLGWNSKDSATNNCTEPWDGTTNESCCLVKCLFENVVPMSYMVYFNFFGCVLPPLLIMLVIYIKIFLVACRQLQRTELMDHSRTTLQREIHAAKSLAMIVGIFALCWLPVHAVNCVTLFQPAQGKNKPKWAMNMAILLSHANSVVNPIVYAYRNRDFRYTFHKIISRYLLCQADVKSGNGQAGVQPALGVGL
Sequence of adenosine A2A receptor (P29274 whole entry): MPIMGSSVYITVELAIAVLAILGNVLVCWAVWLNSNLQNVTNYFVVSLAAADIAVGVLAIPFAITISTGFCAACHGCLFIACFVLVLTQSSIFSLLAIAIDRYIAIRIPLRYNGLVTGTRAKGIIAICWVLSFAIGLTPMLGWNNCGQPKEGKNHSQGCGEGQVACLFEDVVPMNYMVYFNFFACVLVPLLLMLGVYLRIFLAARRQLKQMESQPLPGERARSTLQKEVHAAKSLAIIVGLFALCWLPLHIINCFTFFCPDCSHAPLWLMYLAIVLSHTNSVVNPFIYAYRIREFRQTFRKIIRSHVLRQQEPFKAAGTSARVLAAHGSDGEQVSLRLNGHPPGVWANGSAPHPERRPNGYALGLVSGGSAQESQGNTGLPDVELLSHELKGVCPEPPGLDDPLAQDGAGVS

Structure (SMILES)	IC50 [1] [nM]	Ratio [2, 3]	IC50 [2] [nM]	Ratio [2, 4]
O=C(NCc1ccccn1)c1nc(NCc2ccccn2)nc2ccsc12 [Example Z78, N-(Pyridin-2-ylmethyl)-2-((pyridin-2-ylmethyl)amino)thieno[3,2-d]pyrimidine-4-carboxamide]	100 to 500	2.02	50 to 100	
C[C@H](NC(=O)c1nc(N[C@@H](C)c2ccncc2)nc2ccsc12)c1ccncc1 [Example Z338, N—((S)-1-(Pyridin-4-yl)ethyl)-2-(((S)-1-(pyridin-4-yl)ethyl)amino)thieno[3,2-d]pyrimidine-4-carboxamide]	> 500	1.50	100 to 500	
Cc1cc2nc(N[C@@H](C)c3cccnc3)nc(C(=O)NC[C@H]3CCOC3)c2s1 [Example Z388, 6-Methyl-2-(((S)-1-(pyridin-3-yl)ethyl)amino)-N—(((R)-tetrahydrofuran-3-yl)methyl)thieno[3,2-d]pyrimidine-4-carboxamide]	> 500	10.69	50 to 100	
C[C@H](Nc1nc(C(=O)N[C@H]2CCNC2)c2sccc2n1)c1ccccn1 [Example Z150, 2-(((S)-1-(pyridin-2-yl)ethyl)amino)-N—((S)-pyrrolidin-3-yl)thieno[3,2-d]pyrimidine-4-carboxamide]	> 500	7.05	> 500	
CCNC(=O)c1nc(NCCc2ccc(O)cc2)nc2ccsc12 [Example Z460, N-Ethyl-2-((4-hydroxyphenethyl)amino)thieno[3,2-d]pyrimidine-4-carboxamide]	100 to 500		100 to 500	0.84
O=C(c1nc(NCc2cnccn2)nc2ccsc12)N1CCC1 [Example Z155, Azetidin-1-yl(2-((pyrazin-2-ylmethyl)amino)thieno[3,2-d]pyrimidin-4-yl)methanone]	> 500	18.83	50 to 100	
C[C@H](Nc1nc(C(=O)N2CCCOC2)c2sccc2n1)c1ccccn1 [Example Z289, (S)-(1,3-Oxazinan-3-yl)(2-((1-(pyridin-2-yl)ethyl)amino)thieno[3,2-d]pyrimidin-4-yl)methanone]	> 500	14.69	100 to 500	
O=C(NCc1ccc(C(F)(F)F)nc1)c1nc(NCc2ccc(C(F)(F)F)nc2)nc2ccsc12 [Example Z72, N-((6-(Trifluoromethyl)pyridin-3-yl)methyl)-2-(((6-(trifluoromethyl)pyridin-3-yl)methyl)amino)thieno[3,2-d]pyrimidine-4-carboxamide]	> 500	1.00	> 500	
COc1ccc([C@H](C)Nc2nc(C(=O)NCc3ccccn3)c3sccc3n2)cc1 [Example Z466, (S)-2-((1-(4-Methoxyphenyl)ethyl)amino)-N-(pyridin-2-ylmethyl)thieno[3,2-d]pyrimidine-4-carboxamide]	10 to 50		> 500	0.05
COc1cccc(CCNC(=O)c2nc(N[C@@H](C)c3ccccn3)nc3ccsc23)c1 [Example Z437, (S)—N-(3-Methoxyphenethyl)-2-((1-(pyridin-2-yl)ethyl)amino)thieno[3,2-d]pyrimidine-4-carboxamide]	100 to 500		100 to 500	
C[C@H](Nc1nc(C(=O)NCC2CCN(Cc3ccccc3)CC2)c2sccc2n1)c1ccccn1 [Example Z151, (S)—N-((1-Benzylpiperidin-4-yl)methyl)-2-((1-(pyridin-2-yl)ethyl)amino)thieno[3,2-d]pyrimidine-4-carboxamide]	100 to 500		100 to 500	
COc1ccc(CNc2nc(C(=O)N3CCCC3)c3sccc3n2)cn1 [Example Z17, (2-(((6-Methoxypyridin-3-yl)methyl)amino)thieno[3,2-d]pyrimidin-4-yl)(pyrrolidin-1-yl)methanone]	50 to 100	0.19	100 to 500	
CC(NC(=O)c1nc(NC(C)c2cccnc2)nc2ccsc12)c1cccnc1 (stereo not drawn) [Example Z44, N-(1-(Pyridin-3-yl)ethyl)-2-((1-(pyridin-3-yl)ethyl)amino)thieno[3,2-d]pyrimidine-4-carboxamide]	> 500	44.44	100 to 500	
C[C@H](Nc1nc(C(=O)N2CCN(C(=O)C(C)(C)C)C2)c2sccc2n1)c1cncc(F)c1 [Example Z565, (S)-1-(3-(2-((1-(5-Fluoropyridin-3-yl)ethyl)amino)thieno[3,2-d]pyrimidine-4-carbonyl)imidazolidin-1-yl)-2,2-dimethylpropan-1-one]	> 500		> 500	6.39
COC[C@@H]1CCN1C(=O)c1nc(N[C@@H](C)c2cncc(F)c2)nc2ccsc12 [Example Z567, (2-(((S)-1-(5-Fluoropyridin-3-yl)ethyl)amino)thieno[3,2-d]pyrimidin-4-yl)((S)-2-(methoxymethyl)azetidin-1-yl)methanone]	> 500		100 to 500	8.82
C[C@H](NC(=O)c1nc(N[C@@H](C)c2cccnc2)nc2ccsc12)c1cccnc1 [Example Z1, N—((S)-1-(Pyridin-3-yl)ethyl)-2-(((S)-1-(pyridin-3-yl)ethyl)amino)thieno[3,2-d]pyrimidine-4-carboxamide]	50 to 100	0.55	100 to 500	
CC(=O)NC1CN(C(=O)c2nc(N[C@@H](C)c3ccccn3)nc3ccsc23)C1 [Example Z533, (S)—N-(1-(2-((1-(pyridin-2-yl)ethyl)amino)thieno[3,2-d]pyrimidine-4-carbonyl)azetidin-3-yl)acetamide]	100 to 500		100 to 500	
O=C(NCc1ccccc1)c1nc(NCc2ccccc2)nc2ccsc12 [Example Z51, N-Benzyl-2-(benzylamino)thieno[3,2-d]pyrimidine-4-carboxamide]	100 to 500	0.40	100 to 500	
Cc1cc2nc(N[C@@H](C)c3cccnc3)nc(C(=O)N3CC(CN)C3)c2s1 [Example Z499, (S)-(3-(Aminomethyl)azetidin-1-yl)(6-methyl-2-((1-(pyridin-3-yl)ethyl)amino)thieno[3,2-d]pyrimidin-4-yl)methanone]	> 500		> 500	13.99
C[C@H](Nc1nc(C(=O)N2CC[C@H](O)C2)c2sccc2n1)c1ccnc(F)c1 [Example Z407, (2-(((S)-1-(2-Fluoropyridin-4-yl)ethyl)amino)thieno[3,2-d]pyrimidin-4-yl)((S)-3-hydroxypyrrolidin-1-yl)methanone]	> 500		100 to 500	8.11
COc1cccc(CCNC(=O)c2nc(N[C@@H](C)c3ccccn3)nc3c(C)csc23)c1 [Example Z444, (S)—N-(3-Methoxyphenethyl)-7-methyl-2-((1-(pyridin-2-yl)ethyl)amino)thieno[3,2-d]pyrimidine-4-carboxamide]	50 to 100		100 to 500	0.35
C[C@H](Nc1nc(C(=O)NCc2cncc(C#N)c2)c2sccc2n1)c1ccccn1 [Example Z102, (S)—N-((5-Cyanopyridin-3-yl)methyl)-2-((1-(pyridin-2-yl)ethyl)amino)thieno[3,2-d]pyrimidine-4-carboxamide]	100 to 500	2.24	100 to 500	
Cc1cc2nc(N[C@@H](C)c3cncc(F)c3)nc(C(=O)NCC3CCNCC3)c2s1 [Example Z534, (S)-2-((1-(5-Fluoropyridin-3-yl)ethyl)amino)-6-methyl-N-(piperidin-4-ylmethyl)thieno[3,2-d]pyrimidine-4-carboxamide]	> 500		50 to 100	57.93
C[C@H](NC(=O)c1nc(N[C@@H](C)c2ccccc2)nc2ccsc12)c1ccccc1 [Example Z394, N—((S)-1-Phenylethyl)-2-(((S)-1-phenylethyl)amino)thieno[3,2-d]pyrimidine-4-carboxamide]	100 to 500	0.87	100 to 500	
Cc1cc2nc(N[C@@H](C)c3cccnc3)nc(C(=O)N3CC(CNC(=O)OC(C)(C)C)C3)c2s1 [Example Z498, tert-Butyl (S)-((1-(6-methyl-2-((1-(pyridin-3-yl)ethyl)amino)thieno[3,2-d]pyrimidine-4-carbonyl)azetidin-3-yl)methyl)carbamate]	> 500		100 to 500	5.78
C[C@H](Nc1nc(C(=O)NCCC2CCN(C(=O)OC(C)(C)C)C2)c2sccc2n1)c1cncc(F)c1 (stereo partly drawn) [Example Z365, tert-Butyl 3-(2-(2-(((S)-1-(5-fluoropyridin-3-yl)ethyl)amino)thieno[3,2-d]pyrimidine-4-carboxamido)ethyl)pyrrolidine-1-carboxylate]	50 to 100	2.19	10 to 50	
COc1ccc(CNC(=O)c2nc(N[C@@H](C)c3ccncc3)nc3ccsc23)cn1 [Example Z345, (S)—N-((6-Methoxypyridin-3-yl)methyl)-2-((1-(pyridin-4-yl)ethyl)amino)thieno[3,2-d]pyrimidine-4-carboxamide]	100 to 500	1.41	50 to 100	
N[C@H]1CCN(C(=O)c2nc(NCc3cc(F)cc(F)c3)nc3ccsc23)C1 [Example Z371, (S)-(3-Aminopyrrolidin-1-yl)(2-((3,5-difluorobenzyl)amino)thieno[3,2-d]pyrimidin-4-yl)methanone]	> 500	11.56	> 500	
CC1CCN1C(=O)c1nc(N[C@@H](C)c2ccccn2)nc2ccsc12 (stereo partly drawn) [Example Z133, (2-Methylazetidin-1-yl)(2-(((S)-1-(pyridin-2-yl)ethyl)amino)thieno[3,2-d]pyrimidin-4-yl)methanone]	10 to 50	3.85	10 to 50	
C[C@H](Nc1nc(C(=O)N2CC(C(=O)NCCO)C2)c2sccc2n1)c1cncc(F)c1 [Example Z547, (S)-1-(2-((1-(5-Fluoropyridin-3-yl)ethyl)amino)thieno[3,2-d]pyrimidine-4-carbonyl)-N-(2-hydroxyethyl)azetidine-3-carboxamide]	> 500		50 to 100	43.40
